Assay results taken from US11591323B2, “Muscarinic agonists as non-steroidal and non-opioid analgesics and methods of use thereof” (Barry University, priority 2019, dated 2023).
Like-named read-outs stand apart in the source and are kept apart here.

What was measured:
Design in all cases: host or cells: CHO cells, stably transfected
M2 muscarinic receptor = target: T1, M2 muscarinic receptor (Homo sapiens, UniProt P08172); experiment: [3H]NMS competition binding, M2 CHO membranes
T1 sequence (P08172 1-466): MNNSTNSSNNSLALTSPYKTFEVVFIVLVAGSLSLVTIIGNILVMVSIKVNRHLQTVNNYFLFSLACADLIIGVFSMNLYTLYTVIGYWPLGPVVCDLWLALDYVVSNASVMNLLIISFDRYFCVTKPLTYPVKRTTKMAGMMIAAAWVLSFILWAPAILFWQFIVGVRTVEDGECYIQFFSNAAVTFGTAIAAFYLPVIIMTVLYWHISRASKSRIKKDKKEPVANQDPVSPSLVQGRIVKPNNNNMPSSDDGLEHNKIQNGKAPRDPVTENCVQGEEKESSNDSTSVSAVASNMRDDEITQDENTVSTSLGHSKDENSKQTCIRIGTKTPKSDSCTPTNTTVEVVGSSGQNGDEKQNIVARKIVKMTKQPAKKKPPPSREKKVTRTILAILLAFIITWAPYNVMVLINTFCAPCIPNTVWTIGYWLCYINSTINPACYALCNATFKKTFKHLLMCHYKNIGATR

M3 muscarinic receptor = M3 muscarinic receptor (Homo sapiens, UniProt P20309); experiment: [3H]NMS competition binding, M3 CHO membranes
Chain of M3 muscarinic receptor (P20309 whole entry): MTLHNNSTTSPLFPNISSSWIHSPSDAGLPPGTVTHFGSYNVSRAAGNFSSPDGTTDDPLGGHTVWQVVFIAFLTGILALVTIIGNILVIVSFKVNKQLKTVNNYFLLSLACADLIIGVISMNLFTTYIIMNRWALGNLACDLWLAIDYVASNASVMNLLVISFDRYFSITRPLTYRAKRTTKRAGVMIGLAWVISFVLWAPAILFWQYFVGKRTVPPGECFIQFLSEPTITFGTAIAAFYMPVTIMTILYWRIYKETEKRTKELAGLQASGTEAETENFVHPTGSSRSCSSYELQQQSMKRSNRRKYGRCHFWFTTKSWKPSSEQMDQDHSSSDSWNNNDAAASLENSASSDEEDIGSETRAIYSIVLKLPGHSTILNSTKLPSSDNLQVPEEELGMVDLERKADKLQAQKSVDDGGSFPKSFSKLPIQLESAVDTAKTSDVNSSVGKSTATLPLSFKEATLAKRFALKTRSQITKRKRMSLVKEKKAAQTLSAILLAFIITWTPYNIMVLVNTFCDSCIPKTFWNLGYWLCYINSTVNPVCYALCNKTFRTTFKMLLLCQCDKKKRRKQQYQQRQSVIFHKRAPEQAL

M4 muscarinic receptor = target: T2, M4 muscarinic receptor (Homo sapiens, UniProt P08173); experiment: inhibition of forskolin-stimulated cAMP, M4 CHO cells (M4Gi); assay type: cell-based; settings: for Emax: CHO
T2 sequence (P08173 1-479): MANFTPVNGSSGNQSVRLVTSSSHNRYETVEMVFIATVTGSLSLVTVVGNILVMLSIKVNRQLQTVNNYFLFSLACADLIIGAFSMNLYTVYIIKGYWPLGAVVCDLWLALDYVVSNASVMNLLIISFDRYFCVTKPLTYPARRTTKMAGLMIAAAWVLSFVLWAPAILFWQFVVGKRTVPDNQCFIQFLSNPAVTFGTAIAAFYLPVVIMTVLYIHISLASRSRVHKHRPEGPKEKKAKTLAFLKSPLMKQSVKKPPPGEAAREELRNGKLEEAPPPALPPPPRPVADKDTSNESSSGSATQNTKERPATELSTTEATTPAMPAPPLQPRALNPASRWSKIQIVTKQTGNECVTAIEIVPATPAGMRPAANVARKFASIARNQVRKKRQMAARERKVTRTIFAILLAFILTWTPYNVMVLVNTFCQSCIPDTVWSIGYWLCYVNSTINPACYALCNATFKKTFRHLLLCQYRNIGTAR

M5 muscarinic receptor = target: T3, M5 muscarinic receptor (Homo sapiens, UniProt P08912); experiment: accumulation of IPX, M5 CHO cells (M5Gq); assay type: cell-based
T3 sequence (P08912 1-532): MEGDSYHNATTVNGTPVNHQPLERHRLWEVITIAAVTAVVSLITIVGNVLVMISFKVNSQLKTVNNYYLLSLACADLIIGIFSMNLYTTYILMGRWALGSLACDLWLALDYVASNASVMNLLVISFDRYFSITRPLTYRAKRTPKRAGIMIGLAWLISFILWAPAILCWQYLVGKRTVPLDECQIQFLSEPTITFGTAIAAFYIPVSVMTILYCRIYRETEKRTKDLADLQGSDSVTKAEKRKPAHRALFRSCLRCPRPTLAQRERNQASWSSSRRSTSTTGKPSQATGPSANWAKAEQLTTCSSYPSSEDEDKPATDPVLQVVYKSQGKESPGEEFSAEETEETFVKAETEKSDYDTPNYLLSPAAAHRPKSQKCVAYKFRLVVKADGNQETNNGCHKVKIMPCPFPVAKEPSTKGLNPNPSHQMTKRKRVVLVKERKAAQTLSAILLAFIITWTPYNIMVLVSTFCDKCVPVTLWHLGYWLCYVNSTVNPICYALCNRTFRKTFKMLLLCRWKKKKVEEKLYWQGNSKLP

[1] = competition with 1 nM [3H]NMS, read-out: Inhibition constants (Ki) as negative logarithms, M2 (converted)
[2] = competition with 1 nM [3H]NMS, read-out: Inhibition constants (Ki) as negative logarithms, M3 (converted)
[3] = M4 (↓cAMP), preferential response, Table 7, operational efficacy
[4] = M4 (↓cAMP), preferential response, Table 7, operational model, read-out: pKA (converted)
[5] = M4 (↓cAMP), preferential response, Table 7, read-out: pEC50 (converted)
[6] = M4 (↓cAMP), preferential response, relative to carbachol, Tables 2, 3, 7
[7] = M4 (↓cAMP), preferential response, to carbachol, Tables 2, 3, 7
[8] = M5 (↑IPX), preferential response, Table 7
[9] = M5 (↑IPX), preferential response, Table 7, read-out: pEC50 (converted)
[10] = M5 (↑IPX), preferential response, relative to carbachol, Tables 2, 3, 7
[11] = M4 (↓cAMP), preferential response, Table 7, read-out: E′MAX
[12] = M4Gi (↓cAMP), Table 8, relative to carbachol
[13] = M4Gi (↓cAMP), Table 8, to carbachol
[14] = M5Gq (↑IPX), Table 8, relative to carbachol
[15] = M5 (↑IPX), preferential response, Table 7, operational efficacy
[16] = M5 (↑IPX), preferential response, to carbachol, Tables 2, 3, 7
[17] = pEC50, M5 (↑IPX), preferential response, Table 7

Ki (M2 muscarinic receptor; [1]) [µM] | Kd (M4 muscarinic receptor; [4]) [µM] | EC50 (M4 muscarinic receptor; [5]) [µM] | EC50 (M5 muscarinic receptor; [9]) [µM] | Emax (M4 muscarinic receptor; [11]) [%] | Structure (SMILES) | Ki (M3 muscarinic receptor; [2]) [µM] | Emax (M4 muscarinic receptor) [%] | τ (M4 muscarinic receptor; [3]) | RAi (M4 muscarinic receptor; [6]) | Δlog(τ/KA) (M4 muscarinic receptor; [7]) | E′MAX (M5 muscarinic receptor; [8]) [fold over basal] | RAi (M5 muscarinic receptor; [10]) | E′MAX (M4 muscarinic receptor; M4Gi (↓cAMP), Table 8) [% inhibition] | τ (M4 muscarinic receptor; M4Gi (↓cAMP), Table 8) | RAi (M4 muscarinic receptor; [12]) | Δlog(τ/KA) (M4 muscarinic receptor; [13]) | E′MAX (M5 muscarinic receptor; M5Gq (↑IPX), Table 8) [fold over basal] | RAi (M5 muscarinic receptor; [14]) | τ (M5 muscarinic receptor; [15]) | Δlog(τ/KA) (M5 muscarinic receptor; [16]) | also measured
42.7 | 6.31 | 4.27 | 1.58 | 25 ± 2 | C1=CCN(Cc2cccs2)CC1.Cl [Compound 6A, 1-[(thiophen-2-yl)methyl]-1,2,3,6-tetrahydropyridin-1-ium chloride] | 37.2 |  | 0.39 ± 0.04 | 0.0046 ± 0.0004 | 2.15 ± 0.16 | 1.19 ± 0.04 | 0.0025 ± 0.0008 | 25 ± 2 | 0.39 ± 0.04 | 0.0046 ± 0.0004 | 2.15 ± 0.16 | 1.16 ± 0.04 | 0.0023 ± 0.0007 |  |  | EC50 (M4 muscarinic receptor; M4Gi (↓cAMP), Table 8, read-out: pEC50 (converted)): 8.51 µM; Kd (M4 muscarinic receptor; M4Gi (↓cAMP), Table 8, read-out: pKA (converted)): 12.6 µM; EC50 (M5 muscarinic receptor; M5Gq (↑IPX), Table 8, read-out: pEC50 (converted)): 1.58 µM
 |  |  |  |  | C[N+]1(Cc2ccc(Cl)s2)CC=CCC1.[I-] (centres unmarked) [Compound 7D, 1-[(5-chlorothiophen-2-yl)methyl]-1-methyl-1,2,3,6-tetrahydropyridin-1-ium iodide] | 3.39 | 28 ± 1 | 0.46 ± 0.05 | 0.0048 ± 0.0005 | 2.14 ± 0.19 | 3.5 ± 0.2 | 0.0049 ± 0.0006 |  |  |  |  |  |  | 0.14 ± 0.01 | 2.31 ± 0.50 | Ki (M2 muscarinic receptor; Inhibition constants (Ki) as negative logarithms, M2, competition with 1 nM [3H]NMS): 0.692 µM; Ki (M2 muscarinic receptor; Inhibition constants Ki, at M2 receptors): 0.7 µM; EC50 (M4 muscarinic receptor): 4.68 µM; Kd (M4 muscarinic receptor): 6.31 µM; Kd (M5 muscarinic receptor): 12.6 µM; EC50 (M5 muscarinic receptor; [17]): 9.77 µM
2.29 | 3.98 | 2.88 | 4.37 | 30 ± 1 | Cc1ccc(C[N+]2(C)CC=CCC2)s1.[I-] (centres unmarked) [Compound 7B, 1-methyl-1-[(5-methylthiophen-2-yl)methyl]-1,2,3,6-tetrahydropyridin-1-ium iodide] | 5.25 |  | 0.51 ± 0.05 | 0.0087 ± 0.0009 | 1.90 ± 0.18 | 1.47 ± 0.07 | 0.0021 ± 0.0009 |  |  |  |  |  |  | 0.02 ± 0.01 | 2.67 ± 0.41 | Ki (M2 muscarinic receptor; high-affinity fraction of binding to M2, read-out: high affinity binding): ~0.03 µM; Kd (M5 muscarinic receptor; M5 (↑IPX), preferential response, Table 7, operational model, read-out: pKA (converted)): 5.01 µM
 |  |  |  |  | O=C1CCCN1CC#CCN1CCCC1 [oxotremorine, reference compound] |  | 48 ± 2 | 1.17 ± 0.08 | 3.81 ± 0.16 | −0.62 ± 0.08 | 16 ± 1 | 4.12 ± 0.26 | 48 ± 2 | 1.2 ± 0.1 | 3.81 ± 0.16 | −0.62 ± 0.08 | 16 ± 1 | 4.37 ± 0.29 | 2.60 ± 0.30 | −0.62 ± 0.07 | Ki (M2 muscarinic receptor; Inhibition constants (KI) as negative logarithms, M2, high site, reference agonists, high affinity site): 0.0126 µM; Ki (M2 muscarinic receptor; Inhibition constants (KI) as negative logarithms, M2, low site, reference agonists, low affinity site): 0.575 µM; Ki (M3 muscarinic receptor; Inhibition constants (KI) as negative logarithms, M3, high site): 0.01 µM; Ki (M3 muscarinic receptor; Inhibition constants (KI) as negative logarithms, M3, low site): 0.447 µM; Kd (M4 muscarinic receptor): 0.0316 µM; pEC50 (M4 muscarinic receptor; M4 (↓cAMP), preferential response, Table 7): 7.85 ± 0.04; pEC50 (M4 muscarinic receptor; M4Gi (↓cAMP), Table 8): 7.85 ± 0.04; pKA (M4 muscarinic receptor; M4Gi (↓cAMP), Table 8): 7.5 ± 0.1; Kd (M5 muscarinic receptor): 0.251 µM; pKA (M5 muscarinic receptor; M5Gq (↑IPX), Table 8): 6.6 ± 0.1; τ (M5 muscarinic receptor; M5Gq (↑IPX), Table 8): 2.2 ± 0.3; Δlog(τ/KA) (M5 muscarinic receptor; M5Gq (↑IPX), Table 8, to carbachol): −0.64; EC50 (M5 muscarinic receptor; [17]): 0.0708 µM; EC50 (M5 muscarinic receptor; pEC50, M5Gq (↑IPX), Table 8): 0.0741 µM

Structure (SMILES) | Ki (M2 muscarinic receptor; [1]) [µM] | Kd (M4 muscarinic receptor; [4]) [µM] | EC50 (M4 muscarinic receptor; [5]) [µM] | EC50 (M5 muscarinic receptor; [9]) [µM] | Emax (M4 muscarinic receptor; [11]) [%] | Ki (M3 muscarinic receptor; [2]) [µM] | Emax (M4 muscarinic receptor) [%] | τ (M4 muscarinic receptor; [3]) | RAi (M4 muscarinic receptor; [6]) | Δlog(τ/KA) (M4 muscarinic receptor; [7]) | E′MAX (M5 muscarinic receptor; [8]) [fold over basal] | RAi (M5 muscarinic receptor; [10]) | E′MAX (M4 muscarinic receptor; M4Gi (↓cAMP), Table 8) [% inhibition] | τ (M4 muscarinic receptor; M4Gi (↓cAMP), Table 8) | RAi (M4 muscarinic receptor; [12]) | Δlog(τ/KA) (M4 muscarinic receptor; [13]) | E′MAX (M5 muscarinic receptor; M5Gq (↑IPX), Table 8) [fold over basal] | RAi (M5 muscarinic receptor; [14]) | τ (M5 muscarinic receptor; [15]) | Δlog(τ/KA) (M5 muscarinic receptor; [16]) | also measured
C[N+]1(Cc2ccc(Br)s2)CC=CCC1.[I-] (centres unmarked) [Compound 7C, 1-[(5-bromothiophen-2-yl)methyl]-1-methyl-1,2,3,6-tetrahydropyridin-1-ium iodide] | 0.933 | 2.51 | 2.4 | 3.16 |  | 2.04 | 11 ± 1 | 0.14 ± 0.01 | 0.0030 ± 0.0003 | 2.26 ± 0.16 | 1.19 ± 0.04 | 0.0013 ± 0.0005 |  |  |  |  |  |  |  |  | 
